Measured values reported in patent US20240228493A1, “LRRK2 INHIBITORS AND USES THEREOF” (NEURON23, ICN., priority 2022, published 2024).

Columns and labels:
[1] = target: T1, wt human LRRK2, catalytic site (Homo sapiens, UniProt Q5S007); experiment: TR-FRET LanthaScreen Tb Kinase Activity Assay, LRRK2 inhibition; assay type: biochemical; details: 2 nM wt human LRRK2, 400 nM peptide, 38 μM ATP
T1 construct: wt human LRRK2, catalytic site, catalytic site (ThermoFisher/USA); purchased ThermoFisher
Method: The compounds disclosed herein were tested for their inhibitory effect on LRRK2 kinase according to the following procedures.
The protocol for basic TR-FRET LanthaScreen Tb Kinase Activity Assay inhibitor studies were as follows. LanthaScreen Kinase Activity Assays (ThermoFisher/USA) to evaluate inhibitors were performed by addition of 100 nL of test compound in corresponding DMSO dilutions/5 μL of kinase/fluorescein-ERM (LRRKtide) peptide mixture, Compound & kinase were pre-incubated for 15 minutes, then 5 μl of ATP into 384 well small volume plates. After incubation for 120 minutes at room temperature, the detection reagents containing Tb-anti-pLRRKtide antibody were added to monitor phosphorylation level of peptide. Then, after 60 min minutes incubation at room temperature plates were read in Envision. Data analysis of emission ratios was according to LanthaScreen Tb Kinase Activity Assay protocol.
Kinase and assay components were adjusted to final concentrations according to the kit protocol. For LRRK2: 2 nM wt human LRRK2, catalytic site, catalytic site (ThermoFisher/USA), 400 nM peptide, 38 μM ATP in 1× Kinase Buffer A. […]
Kinase and assay components were adjusted to final concentrations according to the kit protocol.

Caco-2 cells = experiment: Caco-2 bidirectional permeability; assay type: in vitro ADME; details: for Caco-2 ER: Efflux Ratio=Papp(BA)/Papp(AB); for Caco-2 A2B (10^−6 cm/s): apical to basolateral; for Caco-2 A2B (10^−6 cm/s) / Caco-2 B2A (10^−6 cm/s): 2 hours, pH 7.4; for Caco-2 B2A (10^−6 cm/s): basolateral to apical
Method: The compounds disclosed herein were tested in vitro on CaCo2 cell penetration according to the following procedures.
Caco-2 cells purchased from ATCC were seeded onto […] (PET) in 96-well Corning Insert plates at 1×10^5 cells/cm^2. The media were refreshed every 4 to 5 days until the 21st to 28th day for confluent cell monolayer formation.
Experiments were run in duplicate using a HBSS transport buffer containing 10 mM HEPES at pH 7.4. The test article TEST COMPOUND was tested bi-directionally at […] concentrations, the control compound digoxin was tested bi-directionally at 10 μM, and nadolol and metoprolol were tested at 2.0 μM in the A to B direction. Final DMSO concentrations were adjusted to less than 1%. The plates were incubated for 2 hours in a CO2 incubator at 37±1° C. with 5% CO2 at saturated humidity without shaking. Following incubation, samples were mixed with acetonitrile containing internal standard and centrifuged at 3200×g for 10 minutes. Then 200 μL of supernatant was taken from all samples. For TEST COMPOUND and digoxin, the supernatant was diluted with 200 μL of ultra-pure water and for nadolol and metoprolol, the supernatant was diluted with 600 μL of ultra-pure water. All samples were analyzed by LC-MS/MS. Concentrations of TEST COMPOUND and control compounds were determined in starting solutions, donor well solutions, and receiver well solutions using peak area ratios (PAR) of analyte to internal standard. After the transport assay, a lucifer yellow rejection assay was run to determine the Caco-2 cell monolayer integrity.
The apparent permeability (Papp), the % recovery and the efflux ratio were calculated as follows:
Papp=(dCr/dt)×Vr/(A×C0) 1.
Efflux Ratio=Papp(BA)/Papp(AB) 3. • Where: • dCr/dt is the slope of the cumulative concentration in the receiver compartment versus time (mM/s). • Vr and Vd is the volume in the receiver and donor compartments (0.075 mL on the apical side, 0.25 mL on the basolateral side), respectively. • A is the surface area of the cell monolayer (0.0804 cm^2). • C0 is the measured donor concentrations (μM) at the beginning of the experiment. • Cd and Cr are the final measured concentrations in the donor and receiver compartments, respectively.

human hepatocyte = experiment: Human hepatocyte stability, predicted hepatic clearance (h-Hept CL predict); assay type: in vitro ADME; details: human hepatocytes, 0.5×10^6 cells/mL, 1 μM, values without asterisk
Method: The compounds disclosed herein were tested in vitro on human hepatocyte for in vitro h-Hept CL predict according to the following procedures. • 1. Compound sock solutions were prepared by dissolving test compound and positive control in dimethyl sulfoxide (DMSO) at a concentration of 10 mM. Stock solutions were then diluted to 100 μM solutions by combining 198 μL of 50% acetonitrile/50% water with 2 μL of the 10 mM stock in separate conical tubes. • 2. Cryopreserved hepatocytes were prepared as follows: Incubation medium (William's E Medium supplemented with GlutaMAX) and hepatocyte thawing medium were placed in a 37° C. water bath and allowed to warm for at least 15 minutes prior to use. Cryopreserved hepatocytes were removed from storage, ensuring that vials remained at cryogenic temperatures until thawed. Cells were thawed by placing the vials in a 37° C. water bath and gently shaking the vials for 2 minutes. After thawing was completed, vials were sprayed with 70% ethanol and transferred to a biosafety cabinet. Hepatocytes were transferred into 50 mL conical tube containing thawing medium using wide-bore pipette tips. Tubes were placed into a centrifuge and spun at 100 g for 10 minutes. Then thawing medium was aspirated and hepatocytes were resuspended in enough incubation medium to yield ˜1.5×10^6 cells/mL. Cells were counted using acridine orange and propidium iodide (AO/PI) staining, and the viable cell density was determined. Cells were diluted with incubation medium to a working cell density of 0.5×10^6 viable cells/mL. • 3. To determine hepatocyte stability, 198 μL of hepatocytes were transferred into each well of a 96-well non-coated plate. Plates were placed in an incubator to allow the hepatocytes to warm for 10 minutes. • 4. The reaction was started by transferring 2 μL of the 100 μM test compound or positive control solution into respective wells of the 96-well non-coated plates. Plates were returned to the incubator until 25 μL aliquots of well contents were sampled at time points of 0, 15, 30, 60, 90 and 120 minutes. The aliquots were then mixed with 6 volumes (150 μL) of acetonitrile containing internal standard, IS (100 nM alprazolam, 200 nM caffeine and 100 nM tolbutamide) to terminate the reaction and vortexed for 5 minutes. After centrifuging the samples for 45 minutes at 3,220 g, aliquots of 100 μL of the supernatant were taken and diluted with 100 μL of ultra-pure water. The mixture was used for LC/MS/MS analysis. All incubations were performed in duplicate.
All calculations were carried out using Microsoft Excel. Peak area ratios (PAR) were determined from extracted ion chromatograms. The in vitro half-life (t1/2) of parent compound was determined by regression analysis of the percent parent disappearance vs. time curve as follows:
Conversion of the in vitro t1/2 (in minutes) into the in vitro intrinsic clearance (in vitro CLint, in μL/min/1×10^6 cells) was done using the following equation (mean of duplicate determinations): […]
The scaled-up intrinsic clearance (CLint, mL/min/kg), predicted hepatic clearance (CLH, mL/min/kg) and hepatic extraction ratio (ER) were calculated using the following equations:
CLint=(0.693/t1/2)*(1/(hepatocyte concentration (0.5*10^6 cells/mL)))*scaling factors (Table (A) Appendix Table 1)
CLHept-predict=(QH*Scaled-up CLint*fub)/(QH+Scaled-up CLint*fub)
ER=CLH/QH • Where: • V=incubation volume (0.2 mL) • N=number of hepatocytes per well (0.1*10^6 cells) • QH=hepatic blood flow (mL/min/kg) (Table (A) Appendix Table 1) • fub=fraction of unbound drug in plasma, assumed to be 1

T1 sequence (Q5S007 1879-2138 limits assumed): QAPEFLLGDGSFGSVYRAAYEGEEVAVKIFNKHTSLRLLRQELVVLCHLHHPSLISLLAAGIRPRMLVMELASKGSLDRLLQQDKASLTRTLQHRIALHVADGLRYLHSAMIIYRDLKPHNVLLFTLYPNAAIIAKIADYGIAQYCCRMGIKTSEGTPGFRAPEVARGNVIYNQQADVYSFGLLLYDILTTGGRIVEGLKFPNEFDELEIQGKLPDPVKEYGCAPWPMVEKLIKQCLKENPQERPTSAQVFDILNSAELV

## Cc1n[nH]c2c1N=C(c1c(F)cccc1F)Nc1cnc(N3CCCOCC3)cc1-2 [Example 9, 4-[8-(2,6-difluorophenyl)-5-methyl-3,4,7,9,12-pentazatricyclo[8.4.0.02,6]tetradeca-1(10),2(6),4,7,11,13-hexaen-13-y1]-1,4-oxazepane]
[1]
  IC50: 1 to 100 nM
Caco-2 cells
  Caco-2 ER: L (L (Likely)”: ER≥2.5)
  Caco-2 A2B (10^−6 cm/s): M (M (Moderate permeability)”: 1≤A2B (B2A)≤5)
  Caco-2 B2A (10^−6 cm/s): H (H (High permeability)”: A2B (B2A)>5)
Human hepatocyte
  hHep Cl (mL/min/kg): L (L (Low Cl)”: Hep Cl (mL/min/kg)<6.3)

## Cc1n[nH]c2c1N=C(c1c(F)cccc1F)Nc1cnc(N3CCNCC3)cc1-2 [Example 10, 8-(2,6-difluorophenyl)-5-methyl-13-piperazin-1-yl-3,4,7,9,12-pentazatricyclo[8.4.0.02,6]tetradeca-1(10),2(6),4,7,11,13-hexaene]
[1]
  IC50: 1 to 100 nM
Caco-2 cells
  Caco-2 ER: L (L (Likely)”: ER≥2.5)
  Caco-2 A2B (10^−6 cm/s): L (L (Low permeability)”: A2B (B2A)<1)
  Caco-2 B2A (10^−6 cm/s): H (H (High permeability)”: A2B (B2A)>5)
Human hepatocyte
  hHep Cl (mL/min/kg): L (L (Low Cl)”: Hep Cl (mL/min/kg)<6.3)

## CCS(=O)(=O)N1CCN(c2cc3c(cn2)NC(c2c(F)cccc2F)=Nc2c(C)n[nH]c2-3)CC1 [Example 11, 8-(2,6-difluorophenyl)-13-(4-ethylsulfonylpiperazin-1-y1)-5-methyl-3,4,7,9,12-pentazatricyclo[8.4.0.02, 6]tetradeca-1(10),2(6),4,7,11,13-hexaene]
[1]
  IC50: < 1 nM
Caco-2 cells
  Caco-2 ER: L (L (Likely)”: ER≥2.5)
  Caco-2 A2B (10^−6 cm/s): L (L (Low permeability)”: A2B (B2A)<1)
  Caco-2 B2A (10^−6 cm/s): H (H (High permeability)”: A2B (B2A)>5)
Human hepatocyte
  hHep Cl (mL/min/kg): I (I (Intermediate Cl)”: 6.3≤Hep Cl (mL/min/kg)≤14.7)

## COC[C@H]1CN(c2cc3c(cn2)NC(c2c(F)cccc2F)=Nc2c(C)n[nH]c2-3)CCO1 [Example 15, (2R)-4-[8-(2,6-difluorophenyl)-5-methyl-3,4,7,9,12-pentazatricyclo[8.4.0.02,6]tetradeca-1(10),2(6),4,7,11,13-hexaen-13-y1]-2-(methoxymethyl)morpholine]
[1]
  IC50: 1 to 100 nM
Caco-2 cells
  Caco-2 ER: L (L (Likely)”: ER≥2.5)
  Caco-2 A2B (10^−6 cm/s): M (M (Moderate permeability)”: 1≤A2B (B2A)≤5)
  Caco-2 B2A (10^−6 cm/s): H (H (High permeability)”: A2B (B2A)>5)
Human hepatocyte
  hHep Cl (mL/min/kg): L (L (Low Cl)”: Hep Cl (mL/min/kg)<6.3)

## COC[C@@H]1CN(c2cc3c(cn2)NC(c2c(F)cccc2F)=Nc2c(C)n[nH]c2-3)CCO1 [Example 16, (2S)-4-[8-(2,6-difluorophenyl)-5-methyl-3,4,7,9,12-pentazatricyclo[8.4.0.02,6]tetradeca-1(10),2(6),4,7,11,13-hexaen-13-y1]-2-(methoxymethyl)morpholine]
[1]
  IC50: 1 to 100 nM
Caco-2 cells
  Caco-2 ER: L (L (Likely)”: ER≥2.5)
  Caco-2 A2B (10^−6 cm/s): M (M (Moderate permeability)”: 1≤A2B (B2A)≤5)
  Caco-2 B2A (10^−6 cm/s): H (H (High permeability)”: A2B (B2A)>5)
Human hepatocyte
  hHep Cl (mL/min/kg): L (L (Low Cl)”: Hep Cl (mL/min/kg)<6.3)

## Cc1n[nH]c2c1N=C(c1c(F)cccc1F)Nc1cnc(N3CCC[C@H](C#N)C3)cc1-2 [Example 19, (3S)-1-[8-(2,6-difluorophenyl)-5-methyl-3,4,7,9,12-pentazatricyclo [8.4.0.02,6]tetradeca-1(10),2(6),4,7,11,13-hexaen-13-yl]piperidine-3-carbonitrile]
[1]
  IC50: 1 to 100 nM
Caco-2 cells
  Caco-2 ER: L (L (Likely)”: ER≥2.5)
  Caco-2 A2B (10^−6 cm/s): M (M (Moderate permeability)”: 1≤A2B (B2A)≤5)
  Caco-2 B2A (10^−6 cm/s): H (H (High permeability)”: A2B (B2A)>5)
Human hepatocyte
  hHep Cl (mL/min/kg): L (L (Low Cl)”: Hep Cl (mL/min/kg)<6.3)

## OCc1ccc(F)c(C2=Nc3c(Cl)n[nH]c3-c3cc(N4CCOCC4)ncc3N2)c1F [Example 21, (3-(3-chloro-9-morpholino-1,6-dihydropyrazolo[4,3-d]pyrido[4,3-f][1,3]diazepin-5-yl)-2,4-difluorophenyl)methanol]
[1]
  IC50: < 1 nM
Caco-2 cells
  Caco-2 ER: L (L (Likely)”: ER≥2.5)
  Caco-2 A2B (10^−6 cm/s): L (L (Low permeability)”: A2B (B2A)<1)
  Caco-2 B2A (10^−6 cm/s): H (H (High permeability)”: A2B (B2A)>5)
Human hepatocyte
  hHep Cl (mL/min/kg): L (L (Low Cl)”: Hep Cl (mL/min/kg)<6.3)

## OCc1cc(F)c(C2=Nc3c(Cl)n[nH]c3-c3cc(N4CCOCC4)ncc3N2)c(F)c1 [Example 22, (4-(3-chloro-9-morpholino-1,6-dihydropyrazolo[4,3-d]pyrido[4,3-f][1,3]diazepin-5-y1)-3,5-difluorophenyl)methanol]
[1]
  IC50: < 1 nM
Caco-2 cells
  Caco-2 ER: L (L (Likely)”: ER≥2.5)
  Caco-2 A2B (10^−6 cm/s): L (L (Low permeability)”: A2B (B2A)<1)
  Caco-2 B2A (10^−6 cm/s): H (H (High permeability)”: A2B (B2A)>5)
Human hepatocyte
  hHep Cl (mL/min/kg): I (I (Intermediate Cl)”: 6.3≤Hep Cl (mL/min/kg)≤14.7)

## Fc1cccc(Cl)c1C1=Nc2c(Cl)n[nH]c2-c2cc(N3CCOCC3)ncc2N1 [Example 24, (4-[5-chloro-8-(2-chloro-6-fluoro-phenyl)-3,4,7,9,12-pentazatricyclo[8.4.0.02,6]tetradeca-1(10),2(6),4,7,11,13-hexaen-13-yl]morpholine)]
[1]
  IC50: < 1 nM
Caco-2 cells
  Caco-2 ER: L (L (Likely)”: ER≥2.5)
  Caco-2 A2B (10^−6 cm/s): M (M (Moderate permeability)”: 1≤A2B (B2A)≤5)
  Caco-2 B2A (10^−6 cm/s): H (H (High permeability)”: A2B (B2A)>5)
Human hepatocyte
  hHep Cl (mL/min/kg): I (I (Intermediate Cl)”: 6.3≤Hep Cl (mL/min/kg)≤14.7)
